In patent US20060205761A1, “Ccr-2 antagonists for treatment of neuropathic pain” (priority 2003, published 2006):

Legend:
[1] = tested on: formalin-induced pain behavior; experiment: Mouse formalin test; format: in vivo; details: for decrease of pain behavior in the formalin test: 60 min before formalin
Method: Formalin Test: For 4 days prior to testing, mice were acclimated for 2 hours every day on the test platform. On the day of study, mice were placed for 1 hour on the test platform, and subsequently were administered 10 μl of 2% formalin in the plantar surface of the left paw. The time mice spent either licking or lifting the injected paw was recorded over 2-minute periods at 5-minute intervals for 50 minutes. […] Phase 1 (0-10 min post-injection) is considered to reflect acute pain, whereas phase 2 (10-50 min post-injection) reflects chronic, inflammatory pain. The formalin test: a quantitative study of the analgesic effects of morphine, meperidine, and brain stem stimulation in rats and cats. Pain. December 1977;4(2):161-74) Intragastrical administration by gavage: Compound and vehicle were given via a 18 G Gavage needle at 0.2 ml/30 g of the mouse body weight. Compounds: A CCR-2 antagonist having the formula: [drawing 1085] (CCR-2 Antagonist “A”) was tested in the formalin test and the mouse nerve injury model. A second CCR-2 antagonist: [drawing 1086] (CCR-2 Antagonist “B”) was tested in the formalin test only. Both compounds were diluted in 0.5% methylcellulose and were dosed p.o. at a volume of 0.2 ml per 30 g body-weight. For the formalin test, compounds were administered 60 min before the formalin injection. For the nerve injury model, Compound A was tested 4-5 days after surgery. A third CCR-2 antagonist having the formula: [drawing 1087] (CCR-2 Antagonist “C”) was tested in the rat nerve model, MCP-1 co-administration model, the carrageenan model and the CFA model. The compound was dissolved into ethanol/H2O=9/95 prior to testing.

[2] = tested on: mechanical allodynia after spinal nerve ligation; experiment: L5-L6 spinal nerve ligation (Chung) model, 50% paw withdrawal threshold / % MPE; format: in vivo, Sprague-Dawley rat; details: rat
Method: Intragastrical administration by gavage: Compound and vehicle were given via a 15 G Gavage needle at 1 ml/100 g of the rat body weight. L5-L6 Spinal Nerve Ligation (Chung): Male Sprague-Dawley rats (Taconic) were anesthetized with 2% gaseous isofluorane (For induction 3-5% and O2 […], for maintenance 2-3% and O2 […]). Following dorsal skin incision and muscle separation, the posterior interarticular traverse process of L/S1 was exposed and carefully removed with a mircro Rongeur. The L5 and L6 spinal nerves were tightly ligated by a square knot with 6-0 silk thread. The muscles were closed with 4-0 absorbable sutures and the skin was closed with wound clips. […] Animals were pre-tested and non-sensitive rats (50% paw withdrawal threshold above 3 g) were also excluded from compound testing. The results were expressed either as 50% paw withdrawal threshold, or in % maximal possible effect (MPE). MPE was calculated as follows: [formula] Pre-operation cut-off value is 15 grams. CCR-2 Antagonist C was evaluated in a multiple dosing study for 5 days. […] 50% paw withdrawal threshold following multiple dosing (3 mg/kg, PO, b.i.d.) of CCR-2 Antagonist C. Five days post spinal nerve ligation, the animals were tested before and 1 hr after dosing at 7 a.m. each day for 5 days. Data=Mean±SEM, n=10 rats. Efficacy: % MPE. […]

[3] = tested on: CFA-induced weight bearing deficit; experiment: Rat Complete Freund's Adjuvant (CFA) model, weight bearing; format: in vivo, Sprague-Dawley rat
Method: Complete Freund's Adjuvant (CFA): Male Sprague-Dawley rats (Charles River) were injected with CFA (150 μl) intraplantar into their left paw. This study included 3 groups: (1) CCR-2 Antagonist C at 3 mg/kg bid started 2 hours before CFA injection, (2) vehicle group and (3) CCR-2 Antagonist C at 10 mg/kg given on day 3 post-CFA (rats received vehicle on day 0-2)(n=6 per group). Rats were dosed for 3.5 days bid. Before the morning dose and two hours after it, weight bearing and paw size were measured. On the final day of the study (day 3 post-CFA) in addition to weight bearing, paw pressure threshold was also evaluated at 2 hr post dose.

[4] = tested on: mechanical allodynia induced by MCP-1; experiment: Intrathecal MCP-1 injection and co-injection with CCR-2 antagonist, 50% paw withdrawal threshold; format: in vivo; details: rat
Method: Intrathecal administration by intrathecal catheter: Using Hamilton syringe to inject each rat: 5 μl compound or vehicle, 1 μl air and 9 μl vehicle. Intrathecal catheterization. After shaving the back of the head and neck, the rats were placed in a stereotaxic headholder with the head flexed forward. A 8-cm saline filled polyethylene tube (PE5) was placed into the subarachnoid space through a small puncture and threaded caudally so that the caudal tip rested on the rostral edge of the lumbar enlargement. The rats were allowed to recover for a minimum of 2-3 days prior to further study. […] Animals with impaired motor function (e.g. hind limb paralysis) were euthanized. Compounds: A CCR-2 antagonist having the formula: [drawing 1085] (CCR-2 Antagonist “A”) was tested in the formalin test and the mouse nerve injury model. A second CCR-2 antagonist: [drawing 1086] (CCR-2 Antagonist “B”) was tested in the formalin test only. Both compounds were diluted in 0.5% methylcellulose and were dosed p.o. at a volume of 0.2 ml per 30 g body-weight. For the formalin test, compounds were administered 60 min before the formalin injection. For the nerve injury model, Compound A was tested 4-5 days after surgery. A third CCR-2 antagonist having the formula: [drawing 1087] […] At Day 0, 1, 3, 4, 7, 10, 11, 15, 18 and 21 post dosing, 50% paw withdrawal threshold was determined.

CC(C)[C@]1(C(=O)N2CCc3ccc(C(F)(F)F)cc3C2)CCC(N[C@H]2CCOC[C@H]2C)C1 (some centres unmarked) [CCR-2 Antagonist A]
effect in the formalin test versus vehicle ([1]; 1 mg/kg p.o.): No difference with the vehicle group
decrease of pain behavior in the formalin test ([1]; 3 mg/kg p.o.): 50%
effect on phase 2 times of the formalin test ([1]; 3 mg/kg p.o.): significantly decreased
effect on phase 2 times of the formalin test ([1]; 30 mg/kg p.o.): significantly decreased
effect on phase 1 of the formalin test ([1]; p.o., phase 1): no effect

CO[C@H]1COCC[C@H]1NC1CC[C@@](C(=O)N2CCc3ncc(C(F)(F)F)cc3C2)(C(C)C)C1 (some centres unmarked) [CCR-2 Antagonist B]
decrease of phase 2 of the formalin test ([1]; 10 mg/kg): 20%
decrease of pain behavior in the formalin test ([1]; 30 mg/kg p.o.): 30%
decrease of phase 2 of the formalin test ([1]; 30 mg/kg): 30%

CC(C)[C@]1(C(=O)N2CCc3ncc(C(F)(F)F)cc3C2)CC[C@@H](NC2CCOC[C@H]2C)C1 (some centres unmarked) [CCR-2 Antagonist C]
efficacy in multiple dosing study (50% paw withdrawal threshold) ([2]; 3 mg/kg PO b.i.d. for 5 days): significant efficacy
Efficacy: % MPE, day from which efficacy is significant ([2]; 3 mg/kg PO b.i.d., tested before and 1 hr after dosing each day for 5 days): Significant efficacy was observed starting at day 3
effect on weight bearing ([3]; 3 mg/kg bid, day 2 and 3): significantly reversed weight bearing
effect on weight bearing on the affected limb ([3]; 10 mg/kg, day 3): significantly reversed weight bearing
anti-allodynic effect (50% paw withdrawal threshold) of co-injection with MCP-1 ([4]; 20 μg/rat via intrathecal catheter with MCP-1 750 ng/rat, day 4, 7, 10 and 11): partial preemptive anti-allodynic effect
effect of co-injection with MCP-1 on development of mechanical allodynia ([4]; intrathecal co-injection with MCP-1): inhibited and delayed the development of mechanical allodynia
